Results: ChEMBL document CHEMBL3045459 (Med Chem Res, 2013)
Values after ≈ are worked out from the molar mass of the structure shown. Active and inactive are the calls of the source. No cut-off for these calls is given here.

What was measured:
Type in all cases: functional
[1] = test system: Escherichia coli; assay: Antibacterial activity against Escherichia coli assessed as growth inhibition after 24 hr by agar well diffusion method
[2] = test system: Bacillus subtilis; assay: Antibacterial activity against Bacillus subtilis assessed as growth inhibition after 24 hr by agar well diffusion method
[3] = test system: Aspergillus flavus; assay: Antifungal activity against Aspergillus flavus assessed as growth inhibition after 48 hr by broth dilution method
[4] = test system: Aspergillus fumigatus; assay: Antifungal activity against Aspergillus fumigatus assessed as growth inhibition after 48 hr by broth dilution method
[5] = test system: Alternaria alternata; assay: Antifungal activity against Alternaria alternata assessed as growth inhibition after 48 hr by broth dilution method
[6] = test system: Salmonella typhi; assay: Antibacterial activity against Salmonella enterica subsp. enterica serovar Typhi assessed as growth inhibition after 24 hr by agar well diffusion method
[7] = test system: Pseudomonas aeruginosa; assay: Antibacterial activity against Pseudomonas aeruginosa assessed as growth inhibition after 24 hr by agar well diffusion method
[8] = test system: Shigella flexneri; assay: Antibacterial activity against Shigella flexneri assessed as growth inhibition after 24 hr by agar well diffusion method
[9] = test system: Staphylococcus aureus; assay: Antibacterial activity against Staphylococcus aureus assessed as growth inhibition after 24 hr by agar well diffusion method

Nc1nc(-c2ccc(F)cc2)cc(-c2ccc(-n3ccnc3)cc2)n1 was tested, and the “diameter of the inhibition zone (DIZ)” value [1] was 16 mm, the “growth inhibition (GI)” value [2] was “inactive” and the MIC [3] was 1000 mg/L (≈ 3020 µM). The MIC [4] was 500 mg/L (≈ 1510 µM), the MIC [5] was 1000 mg/L (≈ 3020 µM) and the “growth inhibition (GI)” value [6] was “inactive”. For the same molecule, the “growth inhibition (GI)” value [7] was “inactive”, the “diameter of the inhibition zone (DIZ)” value [8] was 12 mm and the “growth inhibition (GI)” value [9] was “inactive”.

Nc1nc(-c2ccccc2)cc(-c2ccc(-n3ccnc3)cc2)n1 was tested, and the “diameter of the inhibition zone (DIZ)” value [1] was 11 mm, the “diameter of the inhibition zone (DIZ)” value [2] was 13 mm and the MIC [3] was 1000 mg/L (≈ 3190 µM). For the same molecule, the MIC [4] was 1000 mg/L (≈ 3190 µM), the MIC [5] was > 1000 mg/L and the “growth inhibition (GI)” value [6] was “inactive”. For the same molecule, the “growth inhibition (GI)” value [7] was “inactive”, the “growth inhibition (GI)” value [8] was “inactive” and the “growth inhibition (GI)” value [9] was “inactive”.

With COc1ccc(-c2cc(-c3ccc(-n4ccnc4)cc3)nc(N)n2)cc1 the “diameter of the inhibition zone (DIZ)” value [1] was 12 mm, the “diameter of the inhibition zone (DIZ)” value [2] was 14 mm and the MIC [3] was > 1000 mg/L. For the same molecule, the MIC [4] was 1000 mg/L (≈ 2910 µM), the MIC [5] was > 1000 mg/L and the “growth inhibition (GI)” value [6] was “inactive”. The “diameter of the inhibition zone (DIZ)” value [7] was 11 mm, the “diameter of the inhibition zone (DIZ)” value [8] was 11 mm and the “growth inhibition (GI)” value [9] was “inactive”.

In the case of Nc1nc(-c2ccc(I)cc2)cc(-c2ccc(-n3ccnc3)cc2)n1, the “diameter of the inhibition zone (DIZ)” value [1] was 20 mm, the “diameter of the inhibition zone (DIZ)” value [2] was 21 mm and the MIC [3] was 1000 mg/L (≈ 2280 µM). For the same molecule, the MIC [4] was 1000 mg/L (≈ 2280 µM), the MIC [5] was 1000 mg/L (≈ 2280 µM) and the “growth inhibition (GI)” value [6] was “inactive”. The “growth inhibition (GI)” value [7] was “inactive”, the “growth inhibition (GI)” value [8] was “inactive” and the “diameter of the inhibition zone (DIZ)” value [9] was 16 mm.

Nc1nc(-c2ccc(-n3ccnc3)cc2)cc(-c2cc(Cl)ccc2Cl)n1 was tested, and the “diameter of the inhibition zone (DIZ)” value [1] was 12 mm, the “diameter of the inhibition zone (DIZ)” value [2] was 12 mm and the MIC [3] was > 1000 mg/L. The MIC [4] was > 1000 mg/L, the MIC [5] was > 1000 mg/L and the “growth inhibition (GI)” value [6] was “inactive”. The “growth inhibition (GI)” value [7] was “inactive”, the “diameter of the inhibition zone (DIZ)” value [8] was 12 mm and the “growth inhibition (GI)” value [9] was “inactive”.

In the case of Nc1nc(-c2ccc(Cl)cc2)cc(-c2ccc(-n3ccnc3)cc2)n1, the “diameter of the inhibition zone (DIZ)” value [1] was 18 mm, the “diameter of the inhibition zone (DIZ)” value [2] was 12 mm and the MIC [3] was 1000 mg/L (≈ 2880 µM). The MIC [4] was 1000 mg/L (≈ 2880 µM), the MIC [5] was 1000 mg/L (≈ 2880 µM) and the “growth inhibition (GI)” value [6] was “inactive”. The “growth inhibition (GI)” value [7] was “inactive”, the “diameter of the inhibition zone (DIZ)” value [8] was 11 mm and the “growth inhibition (GI)” value [9] was “inactive”.

For COc1cc(-c2cc(-c3ccc(-n4ccnc4)cc3)nc(N)n2)ccc1OO, the “diameter of the inhibition zone (DIZ)” value [1] was 15 mm, the “growth inhibition (GI)” value [2] was “inactive” and the MIC [3] was 1000 mg/L (≈ 2660 µM). The MIC [4] was > 1000 mg/L, the MIC [5] was > 1000 mg/L and the “growth inhibition (GI)” value [6] was “inactive”. For the same molecule, the “diameter of the inhibition zone (DIZ)” value [7] was 10 mm, the “growth inhibition (GI)” value [8] was “inactive” and the “diameter of the inhibition zone (DIZ)” value [9] was 13 mm.

With Nc1nc(-c2ccc(Br)cc2)cc(-c2ccc(-n3ccnc3)cc2)n1 the “diameter of the inhibition zone (DIZ)” value [1] was 12 mm, the “diameter of the inhibition zone (DIZ)” value [2] was 13 mm and the MIC [3] was 1000 mg/L (≈ 2550 µM). The MIC [4] was 1000 mg/L (≈ 2550 µM), the MIC [5] was > 1000 mg/L and the “growth inhibition (GI)” value [6] was “inactive”. The “growth inhibition (GI)” value [7] was “inactive”, the “diameter of the inhibition zone (DIZ)” value [8] was 12 mm and the “diameter of the inhibition zone (DIZ)” value [9] was 12 mm.

With Nc1nc(-c2ccc(-n3ccnc3)cc2)cc(-c2ccc(Cl)c(Cl)c2Cl)n1 the “diameter of the inhibition zone (DIZ)” value [1] was 18 mm, the “diameter of the inhibition zone (DIZ)” value [2] was 15 mm and the MIC [3] was > 1000 mg/L. For the same molecule, the MIC [4] was > 1000 mg/L, the MIC [5] was > 1000 mg/L and the “growth inhibition (GI)” value [6] was “inactive”. For the same molecule, the “growth inhibition (GI)” value [7] was “inactive”, the “diameter of the inhibition zone (DIZ)” value [8] was 11 mm and the “diameter of the inhibition zone (DIZ)” value [9] was 15 mm.

COc1cccc(-c2cc(-c3ccc(-n4ccnc4)cc3)nc(N)n2)c1 was tested, and the “diameter of the inhibition zone (DIZ)” value [1] was 13 mm, the “growth inhibition (GI)” value [2] was “inactive” and the MIC [3] was 1000 mg/L (≈ 2910 µM). For the same molecule, the MIC [4] was > 1000 mg/L, the MIC [5] was 1000 mg/L (≈ 2910 µM) and the “growth inhibition (GI)” value [6] was “inactive”. For the same molecule, the “diameter of the inhibition zone (DIZ)” value [7] was 12 mm, the “growth inhibition (GI)” value [8] was “inactive” and the “diameter of the inhibition zone (DIZ)” value [9] was 14 mm.

For C[C@@H](O)[C@H]1C(=O)N2C(C(=O)O)=C(SCCNC=N)C[C@H]12 [IMIPENEM ANHYDROUS], the “diameter of the inhibition zone (DIZ)” value [1] was 35 mm, the “diameter of the inhibition zone (DIZ)” value [2] was 30 mm and the “diameter of the inhibition zone (DIZ)” value [6] was 25 mm. The “diameter of the inhibition zone (DIZ)” value [7] was 31 mm, the “diameter of the inhibition zone (DIZ)” value [8] was 30 mm and the “diameter of the inhibition zone (DIZ)” value [9] was 30 mm.

In the case of Nc1nc(-c2ccc(-n3ccnc3)cc2)cc(-c2ccc(Cl)cc2Cl)n1, the “diameter of the inhibition zone (DIZ)” value [1] was 14 mm, the “growth inhibition (GI)” value [2] was “inactive” and the MIC [3] was > 1000 mg/L. For the same molecule, the MIC [4] was > 1000 mg/L, the MIC [5] was 1000 mg/L (≈ 2620 µM) and the “growth inhibition (GI)” value [6] was “inactive”. The “growth inhibition (GI)” value [7] was “inactive”, the “diameter of the inhibition zone (DIZ)” value [8] was 10 mm and the “diameter of the inhibition zone (DIZ)” value [9] was 11 mm.
